Results on 9 molecules are retold here after patent publication US20210009549A1, “CANNABINOID DERIVATIVES AND CONJUGATES AND USES THEREOF” ([…] LTD., priority 2018, published 2021).

In one series the target is T1, human α1 GlyR (Homo sapiens, UniProt P23415).
T1 construct: expressed in transfected cells
T1 sequence (P23415 29-457): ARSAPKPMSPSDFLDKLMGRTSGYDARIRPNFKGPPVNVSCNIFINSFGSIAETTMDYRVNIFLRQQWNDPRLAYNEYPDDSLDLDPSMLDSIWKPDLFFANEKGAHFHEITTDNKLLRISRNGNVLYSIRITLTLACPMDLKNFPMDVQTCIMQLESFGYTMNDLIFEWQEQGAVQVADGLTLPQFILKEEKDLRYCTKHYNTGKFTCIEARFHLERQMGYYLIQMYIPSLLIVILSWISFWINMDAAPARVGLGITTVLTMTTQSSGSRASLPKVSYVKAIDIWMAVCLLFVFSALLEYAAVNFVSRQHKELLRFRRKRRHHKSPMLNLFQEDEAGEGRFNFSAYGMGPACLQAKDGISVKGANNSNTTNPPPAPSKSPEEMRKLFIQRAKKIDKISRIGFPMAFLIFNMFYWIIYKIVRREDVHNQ
Kind of series: Whole-cell patch clamp, modulation of α1 GlyR-regulated ion channel currents. It counts as cell-based. Conditions: HEK293 cells stably expressing human α1 GlyR; EC2 glycine (1 μM); holding potential −40 mV; room temperature. The procedure: (§1) Currents were recorded by whole-cell patch clamp on HEK293 cells that stably expressed either the human α1 or α3 GlyRs. Cells were cultured on glass coverslips and placed into the recording chamber which was perfused by the standard extracellular solution containing (in mM): 140 NaCl, 5 KCl, 2 CaCl2), 1 MgCl2, 10 HEPES/NaOH and 10 glucose (pH 7.4 adjusted with NaOH). For HEK293 cell recordings we employed an intracellular solution consisting of (mM): 145 CsCl, 2 CaCl2), 2 MgCl2, 10 HEPES and 10 EGTA (pH 7.4 adjusted with CsOH; osmolarity 290 mOsm). HEK293 cell recordings were performed at a holding potential of −40 mV. Solutions were applied to cells via gravity induced perfusion via parallel microtubules under micromanipulator control with a solution exchange time of <250 ms. Experiments were conducted at room temperature (20-22° C.). Due to the irreversible nature of the drug actions, only one cell was tested per coverslip.
(§2) Patch pipettes were fabricated from borosilicate hematocrit tubing (Hirschmann Laborgerate, Eberstadt, Germany) and heat polished. Pipettes had tip resistances of […]. Membrane currents were recorded using an Axopatch 200B amplifier and a Digidata 1440 analog-to-digital converter under control of pClamp10 software (Molecular Devices). Currents were filtered at 500 Hz and digitized at 2 KHz.
(§3) After a stable whole cell recording was obtained, EC2 and saturating glycine concentrations activated currents with the anticipated magnitudes were verified. At al and α3 GlyRs, EC2 current magnitudes generally required glycine concentrations of 1 and 80 μM, respectively. The saturating concentration was invariably 2 mM. The standard experimental protocol involved EC2 glycine application for […] every 1 minute. When glycine was not being applied, the cells were continually and directly exposed to flowing drug solution. After 5 minutes of alternate applications of drug and EC2 glycine, 2 mM glycine was briefly applied every 2 minutes. Regular applications of saturating glycine after the 5 minute time point tended to enhance the drug-induced current magnitude effect further.
(§4) The effects of cannabinoid derivatives on al GlyR and α3 GlyR-regulated ion channel currents, as assessed by the patch clamp method, are indicated in Table 6.
In general terms: In patch-clamp work, channel activity is measured electrically.

Another series deals with T2, human α3 GlyR (Homo sapiens, UniProt O75311).
T2 construct: expressed in transfected cells
T2 sequence (O75311 34-464): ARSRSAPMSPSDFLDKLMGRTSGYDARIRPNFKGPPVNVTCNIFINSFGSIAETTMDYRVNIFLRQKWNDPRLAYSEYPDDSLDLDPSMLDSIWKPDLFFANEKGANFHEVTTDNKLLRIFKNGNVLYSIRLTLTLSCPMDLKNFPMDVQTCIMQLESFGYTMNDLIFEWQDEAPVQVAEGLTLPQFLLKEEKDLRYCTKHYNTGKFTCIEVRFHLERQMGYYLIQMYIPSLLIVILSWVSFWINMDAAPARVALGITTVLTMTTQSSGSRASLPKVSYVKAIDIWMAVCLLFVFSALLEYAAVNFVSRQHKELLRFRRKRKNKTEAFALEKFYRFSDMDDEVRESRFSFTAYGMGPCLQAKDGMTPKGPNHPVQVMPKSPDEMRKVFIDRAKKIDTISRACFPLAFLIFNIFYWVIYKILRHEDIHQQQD
Kind of series: Whole-cell patch clamp, modulation of α3 GlyR-regulated ion channel currents. In kind it is cell-based. The conditions noted are these: for A3 GlyR (fold increase): HEK293 cells stably expressing human α3 GlyR, EC2 glycine (80 μM), holding potential −40 mV, room temperature. On the procedure: as §1, §2, §3, §4

For series [1] the following is noted: rodents; systemic and intrathecal administration; cited from earlier work.
The test system of the next series is presynaptic GlyR. The conditions noted are these: brainstem and spinal cord of hyperekplexic mutant mice; cited from earlier work.
For the next series, the system named is hippocampal neurons. The conditions noted are these: cited from earlier work.

As for `C=C(C)C1CCC(C)=CC1c1ccc(C(C)(C)CCCCCC)cc1O` (stereo not drawn) [Compound 101, 1,1-dimethylheptyl desoxy CBD], on human α1 GlyR, the “α1 GlyR (fold increase)” value is on record as 13 fold. The “A3 GlyR (fold increase)” value on human α3 GlyR is 5 fold.

Consider 7-OH-Desoxy-CBD [Compound 119], for which the “α1 GlyR (fold increase)” value on human α1 GlyR is listed as “no effect”.

Regarding `C=C(C)C1CCC(C)=CC1c1ccc(C(C)C(C)CCCCC)cc1O` (stereo not drawn) [Compound 102, 1,2-dimethylheptyl-desoxy CBD], the “α1 GlyR (fold increase)” value at human α1 GlyR is reported as “no effect”. The “A3 GlyR (fold increase)” value on human α3 GlyR came to 18 fold. For the same molecule, at human α3 GlyR (comparison of patch clamp effects on α1 and α3 GlyR), the “Selectivity α3 GlyR versus α1 GlyR” value was “highly selective towards α3 GlyR”.

For `C=C(C)[C@@H]1CCC(C)=C[C@H]1c1c(O)cc(CCCCC)cc1O` [CBD, cannabidiol], in series [1], the Analgesic tolerance entry is reported as “without causing apparent analgesic tolerance”; the “Suppression of chronic inflammatory and neuropathic pain” value is “significantly suppresses chronic inflammatory and neuropathic pain”.

For the molecule `CCCCCc1ccc2c(c1)OC(C)(C)C1CCC(C)=CC21` (stereo not drawn) [desoxy-THC], the “α1 GlyR (fold increase)” value on human α1 GlyR is 11.2 fold. Besides, the “A3 GlyR (fold increase)” value at human α3 GlyR is on record as 4.7 fold.

On to `CCCCCCC(C)(C)c1ccc2c(c1)OC(C)(C)C1CCC(C)=CC21` (stereo not drawn) [Compound 148, 1,1-DMH-desoxy THC], for which the “α1 GlyR (fold increase)” value at human α1 GlyR amounted to 4.2 fold. In addition, at human α3 GlyR, the “A3 GlyR (fold increase)” value was found to be 4 fold.

In the case of `C=C(C)[C@@H]1CCC(C)=C[C@H]1c1ccc(CCCCC)cc1O` [desoxy-CBD, dehydroxylcannabidiol], the “α1 GlyR (fold increase)” value at human α1 GlyR was 26.7 fold. The “Rescue of impaired presynaptic GlyR activity and diminished glycine release” value in the series with presynaptic GlyR is “selectively rescues impaired presynaptic GlyR activity and diminished glycine release”. In addition, the “A3 GlyR (fold increase)” value on human α3 GlyR came out at 4.6 fold. Further, in series [1], the Analgesic tolerance entry is recorded as “without causing apparent analgesic tolerance”; the “Suppression of chronic inflammatory and neuropathic pain” value was “significantly suppresses chronic inflammatory and neuropathic pain”.

For `C=C(C)[C@@H]1CCC(C)=C[C@H]1c1c(O)cc(CC2CN(C(C)=O)C2)cc1O` [KLS-13019], the “Potency relative to CBD” value in the series with hippocampal neurons (more potent than CBD) is recorded as 50 fold. Moreover, the “Safety relative to CBD” value in the series on hippocampal neurons (safer than CBD) was over 400 fold.

Consider `C=C(C)C1CCC(C)=CC1c1ccc(C(C)(C)CCC)cc1O` (stereo not drawn) [Compound 103, 1,1-dimethylbutyl desoxy CBD], for which the “α1 GlyR (fold increase)” value on human α1 GlyR is on record as 4 fold. The “A3 GlyR (fold increase)” value on human α3 GlyR is given as 10 fold.
